Legend:
P-Akt (S473) = experiment: Cell based AlphaLISA assay, inhibition of P-Akt (S473) in MDA-MB-468 cells (mTORC2 substrate); conditions: AlphaLisa, two to four hours at 37° C.; for IC50: Homo sapiens, 4 h, read-out: pIC50 for Inhibition of mTORC1 and mTORC2 Substrate Phosphorylation p-AKT1/2/3-(S473) (converted)
Experimental: (§1) Cell Based AlphaLISA Assays For Determining IC50 For Inhibition of P-Akt (S473), P-4E-BP1(T37/46), and P-P70S6K (T389) in MDA-MB-468 Cells
(§2) mTOR Kinase Cellular Assay
(§3) To measure functional activity of mTORC1 and mTORC2 in cells the phosphorylation of 4EBPT (Thr37/46) and P70S6K (Thr389), and AKT1/2/3 (Ser473) was monitored using AlphaLisa SureFire Ultra Kits (Perkin Elmer). […] Incubations were terminated by removal of the assay buffer and addition of lysis buffer provided with the assay kit. Samples were processed according to the manufacturer's instructions. The Alpha signal from the respective phosphoproteinswas measured in duplicate using a microplate reader (Envision, Perkin-Elmer or Spectramax M5, Molecular Devices). Inhibitor concentration response curves were analyzed using normalized IC50 regression curve filling with control based normalization.

P-P70S6K (T389) = experiment: Cell based AlphaLISA assay, inhibition of P-P70S6K (T389) in MDA-MB-468 cells (mTORC1 substrate); conditions: AlphaLisa, two to four hours at 37° C.; for IC50: Homo sapiens, 4 h, read-out: pIC50 for Inhibition of mTORC1 and mTORC2 Substrate Phosphorylation p-P70S6K-(T389) (converted)
Experimental: as §1, §2, §3

P-4E-BP1 (T37/46) = experiment: Cell based AlphaLISA assay, inhibition of P-4E-BP1 (T37/46) in MDA-MB-468 cells (mTORC1 substrate); conditions: AlphaLisa, two to four hours at 37° C.; for IC50: Homo sapiens, 4 h, read-out: pIC50 for Inhibition of mTORC1 and mTORC2 Substrate Phosphorylation P-4E-BP1-(T37/46) (converted)
Experimental: as §1, §2, §3

Compound	IC50 (P-Akt (S473)) [nM]	IC50 (P-P70S6K (T389)) [nM]	IC50 (P-4E-BP1 (T37/46)) [nM]	pIC50 for Inhibition of mTORC1 and mTORC2 Substrate Phosphorylation p-AKT1/2/3-(S473) (P-Akt (S473))	pIC50 for Inhibition of mTORC1 and mTORC2 Substrate Phosphorylation p-P70S6K-(T389) (P-P70S6K (T389))	pIC50 for Inhibition of mTORC1 and mTORC2 Substrate Phosphorylation P-4E-BP1-(T37/46) (P-4E-BP1 (T37/46))
CO[C@H]1C[C@@H]2CC[C@@H](C)[C@@](O)(O2)C(=O)C(=O)N2CCCC[C@H]2C(=O)O[C@H]([C@H](C)C[C@@H]2CC[C@@H](OC(=O)NCc3cnc(N4CCN(c5ncc(C(=O)NCCOCCOCCOCCOCCC(=O)N6CCc7cc(Cn8nc(-c9ccc%10oc(N)nc%10c9)c9c(N)ncnc98)ccc7C6)c(N)n5)CC4)nc3)[C@H](OC)C2)C[C@@H](OC)[C@H](C)/C=C(\C)[C@@H](O)[C@@H](OC)C(=O)[C@H](C)C[C@H](C)/C=C/C=C/C=C/1C [Example 94]	< 3.16	< 1	< 3.16	–	–	–
CO[C@H]1C[C@@H]2CC[C@@H](C)[C@@](O)(O2)C(=O)C(=O)N2CCCC[C@H]2C(=O)O[C@H]([C@H](C)C[C@@H]2CC[C@@H](OC(=O)NCc3cnc(N4CCN(c5ncc(C(=O)N(C)CCOCCOCCOCCOCCC(=O)N6CCc7cc(Cn8nc(-c9ccc%10oc(N)nc%10c9)c9c(N)ncnc98)ccc7C6)c(N)n5)CC4)nc3)[C@H](OC)C2)C[C@@H](OC)[C@H](C)/C=C(\C)[C@@H](O)[C@@H](OC)C(=O)[C@H](C)C[C@H](C)/C=C/C=C/C=C/1C [Example 95]	3.16 to 31.6	< 1	< 3.16	–	–	–
CO[C@H]1C[C@@H]2CC[C@@H](C)[C@@](O)(O2)C(=O)C(=O)N2CCCC[C@H]2C(=O)O[C@H]([C@H](C)C[C@@H]2CC[C@@H](OC(=O)NCc3cnc(N4CCN(c5ncc(C(=O)NCCOCCOCCOCCOCCC(=O)N6CCc7cc(Cn8nc(-c9cnc%10[nH]ccc%10c9)c9c(N)ncnc98)ccc7C6)c(N)n5)CC4)nc3)[C@H](OC)C2)CC(=O)[C@H](C)/C=C(\C)[C@@H](O)[C@@H](OC)C(=O)[C@H](C)C[C@H](C)/C=C/C=C/C=C/1C [Example 96]	31.6 to 1000	< 1	< 3.16	–	–	–
CO[C@H]1C[C@@H]2CC[C@@H](C)[C@@](O)(O2)C(=O)C(=O)N2CCCC[C@H]2C(=O)O[C@H]([C@H](C)C[C@@H]2CC[C@@H](OC(=O)N3CCc4nc(N5CCN(c6ncc(C(=O)NCCOCCOCCOCCOCCC(=O)N7CCc8cc(Cn9nc(-c%10cnc%11[nH]ccc%11c%10)c%10c(N)ncnc%109)ccc8C7)c(N)n6)CC5)ncc4C3)[C@H](OC)C2)CC(=O)[C@H](C)/C=C(\C)[C@@H](O)[C@@H](OC)C(=O)[C@H](C)C[C@H](C)/C=C/C=C/C=C/1C [Example 97]	3.16 to 31.6	< 1	< 3.16	–	–	–
CO[C@H]1C[C@@H]2CC[C@@H](C)[C@@](O)(O2)C(=O)C(=O)N2CCCC[C@H]2C(=O)O[C@H]([C@H](C)C[C@@H]2CC[C@@H](OC(=O)NC3CCN(CC(=O)NCCOCCOCCOCCOCCOCCOCCC(=O)N4CCc5cc(Cn6nc(-c7ccc8oc(N)nc8c7)c7c(N)ncnc76)ccc5C4)CC3)[C@H](OC)C2)C[C@@H](O)[C@H](C)/C=C(\C)[C@@H](O)[C@@H](OC)C(=O)[C@H](C)C[C@H](C)/C=C/C=C/C=C/1C [Example 98]	3.16 to 31.6	< 1	< 3.16	–	–	–
CO[C@H]1C[C@@H]2CC[C@@H](C)[C@@](O)(O2)C(=O)C(=O)N2CCCC[C@H]2C(=O)O[C@H]([C@H](C)C[C@@H]2CC[C@@H](OC(=O)NC3CCN(CC(=O)NCCOCCOCCOCCOCCOCCOCCC(=O)N4CCc5cc(Cn6nc(-c7ccc8oc(N)nc8c7)c7c(N)ncnc76)ccc5C4)CC3)[C@H](OC)C2)C[C@@H](OC)[C@H](C)/C=C(\C)[C@@H](O)[C@@H](OC)C(=O)[C@H](C)C[C@H](C)/C=C/C=C/C=C/1C [Example 99]	> 1000	< 1	< 3.16	–	–	–
CO[C@H]1C[C@@H]2CC[C@@H](C)[C@@](O)(O2)C(=O)C(=O)N2CCCC[C@H]2C(=O)O[C@H]([C@H](C)C[C@@H]2CC[C@@H](OC(=O)N3CCC(N)(C(=O)NCCOCCOCCOCCOCCOCCOCCC(=O)N4CCc5cc(Cn6nc(-c7ccc8oc(N)nc8c7)c7c(N)ncnc76)ccc5C4)CC3)[C@H](OC)C2)C[C@@H](O)[C@H](C)/C=C(\C)[C@@H](O)[C@@H](OC)C(=O)[C@H](C)C[C@H](C)/C=C/C=C/C=C/1C [Example 101]	3.16 to 31.6	< 1	< 3.16	–	–	–
CO[C@H]1C[C@@H]2CC[C@@H](C)[C@@](O)(O2)C(=O)C(=O)N2CCCC[C@H]2C(=O)O[C@H]([C@H](C)C[C@@H]2CC[C@@H](OC(=O)NCc3cnc(N4CCN(C(=O)CN(C)CC(=O)NCCOCCOCCC(=O)N5CCc6cc(Cn7nc(-c8ccc9oc(N)nc9c8)c8c(N)ncnc87)ccc6C5)CC4)nc3)[C@H](OC)C2)C[C@@H](OC)[C@H](C)/C=C(\C)[C@@H](O)[C@@H](OC)C(=O)[C@H](C)C[C@H](C)/C=C/C=C/C=C/1C [Example 103]	–	–	–	− (<6)	+++ (≥9)	− (<6)
CO[C@H]1C[C@@H]2CC[C@@H](C)[C@@](O)(O2)C(=O)C(=O)N2CCCC[C@H]2C(=O)O[C@H]([C@H](C)C[C@@H]2CC[C@@H](OC(=O)NCc3cnc(N4CCN(c5ncc(C(=O)NCCOCCOCCOCCOCCC(=O)N6CCc7cc(Cn8nc(-c9ccc%10oc(N)nc%10c9)c9c(N)ncnc98)ccc7C6)cn5)[C@@H](C(=O)O)C4)nc3)[C@H](OC)C2)CC(=O)[C@H](C)/C=C(\C)[C@@H](O)[C@@H](OC)C(=O)[C@H](C)C[C@H](C)/C=C/C=C/C=C/1C [Example 105]	–	–	–	− (<6)	+++ (≥9)	++ (8.5 > pIC50 ≥ 7.5)
CO[C@H]1C[C@@H]2CC[C@@H](C)[C@@](O)(O2)C(=O)C(=O)N2CCCC[C@H]2C(=O)O[C@H]([C@H](C)C[C@@H]2CC[C@@H](OC(=O)NCc3cnc(N4CCN(c5ncc(C(=O)N(C)CCOCCOCCOCCOCCC(=O)N6CCc7cc(Cn8nc(-c9ccc%10oc(N)nc%10c9)c9c(N)ncnc98)ccc7C6)c(N)n5)CC4)nc3)[C@H](OC)C2)C[C@@H](OC)[C@H](C)/C=C(\C)[C@@H](O)[C@@H](OC)C(=O)[C@H](C)C[C@H](C)/C=C/C=C/C=C/1C [Example 107]	–	–	–	− (<6)	+++ (≥9)	− (<6)
CO[C@H]1C[C@@H]2CC[C@@H](C)[C@@](O)(O2)C(=O)C(=O)N2CCCC[C@H]2C(=O)O[C@H]([C@H](C)C[C@@H]2CC[C@@H](OC(=O)NCc3cnc(N4CCN(c5ncc(C(=O)NCCOCCOCCOCCOCCC(=O)N6CCc7cc(Cn8nc(-c9cnc%10[nH]ccc%10c9)c9c(N)ncnc98)ccc7C6)c(N)n5)CC4)nc3)[C@H](OC)C2)CC(=O)[C@H](C)/C=C(\C)[C@@H](O)[C@@H](OC)C(=O)[C@H](C)C[C@H](C)/C=C/C=C/C=C/1C [Example 108]	–	–	–	− (<6)	++ (9 > pIC50 ≥ 8)	− (<6)
CO[C@H]1C[C@@H]2CC[C@@H](C)[C@@](O)(O2)C(=O)C(=O)N2CCCC[C@H]2C(=O)O[C@H]([C@H](C)C[C@@H]2CC[C@@H](OC(=O)NCc3cnc(N4CCN(C(=O)CCOCCN5CCN(c6ncc(C(=O)N7CCc8cc(Cn9nc(-c%10ccc%11oc(N)nc%11c%10)c%10c(N)ncnc%109)ccc8C7)cn6)CC5)CC4)nc3)[C@H](OC)C2)CC(=O)[C@H](C)/C=C(\C)[C@@H](O)[C@@H](OC)C(=O)[C@H](C)C[C@H](C)/C=C/C=C/C=C/1C [Example 109]	> 1000	10 to 1000	> 1000	–	–	–
CO[C@H]1C[C@@H]2CC[C@@H](C)[C@@](O)(O2)C(=O)C(=O)N2CCCC[C@H]2C(=O)O[C@H]([C@H](C)C[C@@H]2CC[C@@H](OC(=O)NCc3cnc(N4CCN(C(=O)CCOCCN5CCN(c6ncc(C(=O)N7CCc8cc(Cn9nc(-c%10cnc%11[nH]ccc%11c%10)c%10c(N)ncnc%109)ccc8C7)cn6)CC5)CC4)nc3)[C@H](OC)C2)CC(=O)[C@H](C)/C=C(\C)[C@@H](O)[C@@H](OC)C(=O)[C@H](C)C[C@H](C)/C=C/C=C/C=C/1C [Example 110]	> 1000	1 to 10	> 1000	–	–	–
CO[C@H]1C[C@@H]2CC[C@@H](C)[C@@](O)(O2)C(=O)C(=O)N2CCCC[C@H]2C(=O)O[C@H]([C@H](C)C[C@@H]2CC[C@@H](OC(=O)NCc3cnc(N4CCN(c5ncc(C(=O)NCCOCCC(=O)N6CCN(c7ncc(C(=O)NCCCCn8nc(-c9ccc%10oc(N)nc%10c9)c9c(N)ncnc98)cn7)CC6)cn5)CC4)nc3)[C@H](OC)C2)CC(=O)[C@H](C)/C=C(\C)[C@@H](O)[C@@H](OC)C(=O)[C@H](C)C[C@H](C)/C=C/C=C/C=C/1C [Example 111]	> 1000	< 1	< 3.16	–	–	–
CO[C@H]1C[C@@H]2CC[C@@H](C)[C@@](O)(O2)C(=O)C(=O)N2CCCC[C@H]2C(=O)O[C@H]([C@H](C)C[C@@H]2CC[C@@H](OC(=O)NCc3cnc(N4CCN(C(=O)CCOCCN5CCN(c6ncc(C(=O)NCCCCn7nc(-c8ccc9oc(N)nc9c8)c8c(N)ncnc87)cn6)CC5)CC4)nc3)[C@H](OC)C2)CC(=O)[C@H](C)/C=C(\C)[C@@H](O)[C@@H](OC)C(=O)[C@H](C)C[C@H](C)/C=C/C=C/C=C/1C [Example 112]	> 1000	< 1	> 1000	–	–	–

Reference: patent US10980889B1 (Revolution Medicines, Inc., priority 2018, dated 2021)
